The nature of data set [1]: Slurry in dichloromethane at ambient temperature, solvent mediated form conversion by XRPD. Format: physicochemical. The settings on record: 16 days, no seeds, hydrochloride. The method, then: Slurry Experiments: Suspensions are prepared by adding enough solids to a given solvent so that excess solids are present. The mixture is then agitated in a sealed vial at ambient temperature or an elevated temperature. After a given period of time, the solids are isolated by vacuum filtration and analyzed.
558.9 mg of Crystalline Form A from Example 5 above is slurried in 5 mL dichloromethane. The preparation is stirred (300 RPM) in a sealed vial at ambient temperature for 16 days. White solids are isolated by vacuum filtration, rinsed with 1 mL of dichloromethane, and briefly dried under nitrogen. […] The XRPD pattern is collected with a PANalytical X'Pert PRO MPD diffractometer using an incident beam of Cu radiation produced using an Optix long, fine-focus source. An elliptically graded multilayer mirror is used to focus Cu Kα X-rays through the specimen and onto the detector. Prior to the analysis, a silicon specimen (NIST SRM 640e) is analyzed to verify the observed position of the Si 111 peak is consistent with the NIST-certified position. A specimen of the sample is sandwiched between 3-μm-thick films and analyzed in transmission geometry. A beam-stop, short antiscatter extension, and an antiscatter knife edge are used to minimize the background generated by air. Soller slits for the incident and diffracted beams are used to minimize broadening from axial divergence. […]

The nature of data set [2]: Dynamic vapor sorption/desorption isotherm (moisture balance). It counts as physicochemical. The settings on record: 25° C. An excerpt:
Based on the dynamic vapor sorption/desorption data collected (FIG. 3), Crystalline Form A obtained is a non-hygroscopic material.
Data acquisition parameters for dynamic vapor sorption/desorption isotherm: […]

Entries after “also recorded” stand apart in the source; their conditions may differ.

As for `Cl.c1ccc2cc([C@]34CNC[C@H]3C4)ccc2c1` [Crystalline Form A, (1R,5S)-1-(naphthalen-2-yl)-3-azabicyclo[3.1.0]hexane hydrochloride], in data set [1], the “solid form after slurry in dichloromethane” value is given as “Product is Crystalline Form A; also recorded: does not cause a solvent mediated form conversion to Crystalline Form B”. Besides, the “weight loss upon initial equilibration at 5% RH” value in data set [2] was determined as 0.03%. Also, the “hygroscopicity based on dynamic vapor sorption/desorption data” value in data set [2] (5% to 95% RH) is recorded as “non-hygroscopic”. Further, the “weight gain from 5% to 95% RH” value in data set [2] (sorption) was 0.10%. Further, the Weight % chg in data set [2] (desorption, Samp RH 4.95%) is recorded as −0.032 % chg; in data set [2] (desorption, Samp RH 15.20%), −0.025 % chg; in data set [2] (desorption, Samp RH 25.12%), −0.021 % chg; in data set [2] (desorption, Samp RH 35.13%) it was −0.016 % chg; in data set [2] (desorption, Samp RH 45.09%), −0.013 % chg; in data set [2] (desorption, Samp RH 55.08%), −0.007 % chg. Moreover, the Weight % chg in data set [2] (desorption, Samp RH 64.96%) is 0.003 % chg; in data set [2] (desorption, Samp RH 75.28%) it was 0.019 % chg; in data set [2] (desorption, Samp RH 85.08%), 0.037 % chg; in data set [2] (sorption, Samp RH 5.06%), −0.034 % chg; in data set [2] (sorption, Samp RH 15.24%), −0.025 % chg; in data set [2] (sorption, Samp RH 24.81%), −0.024 % chg. In addition, the Weight % chg is −0.019 % chg in data set [2] (sorption, Samp RH 34.82%); −0.016 % chg in data set [2] (sorption, Samp RH 44.81%); −0.012 % chg in data set [2] (sorption, Samp RH 54.86%); −0.005 % chg in data set [2] (sorption, Samp RH 64.82%); 0.005 % chg in data set [2] (sorption, Samp RH 74.66%); 0.024 % chg in data set [2] (sorption, Samp RH 84.55%). Besides, the Weight % chg in data set [2] (sorption, Samp RH 94.54%) is on record as 0.068 % chg; in data set [2] (start, Samp RH 1.70%), 0.000 % chg.

(Values after US11299458B2, “Crystalline compounds” (OTSUKA AMERICA PHARMACEUTICAL, INC., priority 2015, dated 2022).)
